Measurements taken from PMC10216551 (2023).

What was measured:
[1] = test system: FAM-H1-8 (DNA, aptamer) GACGACGTAGCGGCGGTGTGGGCATTTTGGGCTAAAGTCGTC; assay: fluorescence, quencher strand displacement; details: 500 mM NaCl, 10 mM MgCl2, 50 mM HEPES pH 7.6, room temperature
[2] = test system: H1 (DNA, aptamer) GACGACGTAGCGGCGGTGTGGGCATTTTGGGCTAAAGTCGTCCCGATGCT; assay: ITC; details: 500 mM NaCl, 10 mM MgCl2, 50 mM HEPES pH 7.6, 25 °C
[3] = test system: H3 (DNA, aptamer) GACGACTAAGCGGCGGTGTGGGCATTTTGGGCTTTTGTCGTCCCGATGCT; assay: ITC; details: 500 mM NaCl, 10 mM MgCl2, 50 mM HEPES pH 7.6, 25 °C
[4] = test system: H2 (DNA, aptamer) GACGACTGTGGGCTGCCAAGGGCGCGTAGGGCGAAAGTCGTCCCGATGCT; assay: ITC; details: 500 mM NaCl, 10 mM MgCl2, 50 mM HEPES pH 7.6, 25 °C
[5] = test system: H1-12 (DNA, aptamer) CGACGTAGCGGCGGTGTGGGCATTTTGGGCTAAAGTCG; assay: ITC; details: 500 mM NaCl, 10 mM MgCl2; 50 mM HEPES pH 7.6, 25 °C; one-site fit
[6] = test system: H1-8 (DNA, aptamer) GACGACGTAGCGGCGGTGTGGGCATTTTGGGCTAAAGTCGTC; assay: ITC; details: 500 mM NaCl, 10 mM MgCl2; 50 mM HEPES pH 7.6, 25 °C; one-site fit
[7] = test system: H1-14 (DNA, aptamer) GACGTAGCGGCGGTGTGGGCATTTTGGGCTAAAGTC; assay: ITC; details: 500 mM NaCl, 10 mM MgCl2; 50 mM HEPES pH 7.6, 25 °C; one-site fit
[8] = test system: H7 (DNA, aptamer) GACGACGTCCCGATGCTGCAATCGTAAACCCGTTATGTCGTCCCGATGCT; assay: ITC; details: 500 mM NaCl, 10 mM MgCl2; 50 mM HEPES pH 7.6, 25 °C; 10 μM aptamer, 0.33 mM 5-HMF in syringe
[9] = test system: H10 (DNA, aptamer) GACGACTAGAGGGGGCCCGTTATTCGGTGATGTCTTGTCGTCCCGATGCT; assay: ITC; details: 500 mM NaCl, 10 mM MgCl2; 50 mM HEPES pH 7.6, 25 °C; 10 μM aptamer, 0.33 mM 5-HMF in syringe
[10] = test system: H1-21 (DNA, aptamer) GTAGCGGCGGTGTGGGCATTTTGGGCTAA; assay: ITC; details: 500 mM NaCl, 10 mM MgCl2; 50 mM HEPES pH 7.6, 25 °C; one-site fit

binding ([1]; BHQ1-cDNA as displaced strand, up to 100 μM FF) | binding ([2]; FF concentration not stated) | binding ([3]; FF concentration not stated) | binding ([4]; FF concentration not stated) | Kd ([1]; apparent, BHQ1-cDNA displaced (1:2), 5-HMF 0–2000 μM) [µM] | Kd ([2]; one-site fit) [µM] | Kd ([3]; one-site fit) [µM] | Kd [5] [µM] | Kd [6] [µM] | Kd ([4]; one-site fit) [µM] | Kd [7] [µM] | binding [8] | binding [9] | Kd [10] [µM] | SMILES
no | no | no | no | – | – | – | – | – | – | – | – | – | – | O=Cc1ccco1
– | – | – | – | 64 | 2.46 ± 1.90 | 12.40 ± 2.70 | 1.22 ± 0.90 | 1.79 ± 0.60 | 8.76 ± 2.50 | 6.50 ± 1.80 | no | no | 4.7 ± 0.6 | O=Cc1ccc(CO)o1
